# In article PMC12670400, “LEKTI-Grafted Sunflower Trypsin Inhibitor: A Potential Therapeutic for Skin Diseases” (Journal of Medicinal Chemistry, 2025):
# Entries after “also recorded” stand apart in the source; their conditions may differ. Bridge positions count the residues as written; N and C are the ends. Peptide text beside a SMILES is read from it.
# Tested on: KLK5-mediated PAR2 activation
# Assay: PAR2-dependent intracellular calcium mobilization assay in N/TERT keratinocytes
# Assay type: cell-based
# Settings: 2.5 to 40 μM, rKLK5 10 μM, preincubated one hour, n = 3, listed as lead 7
# Description: PAR2, a member of the G-protein-coupled receptor family expressed in keratinocytes, is a known downstream target of KLK5. KLK5 activates PAR2 by cleaving its extracellular N-terminal domain. This cleavage exposes a tethered ligand, which binds PAR2 intramolecularly to activate the receptor. , Activated PAR2 causes protein kinase C (PKC) and inositol 1,4,5-trisphosphate (IP3) activation, leading to calcium release from the endoplasmic reticulum, known as intracellular calcium mobilization. […] This delay is attributed to the time required for KLK5 to enzymatically cleave the extracellular N-terminal domain of PAR2, thereby exposing the tethered ligand sequence necessary to initiate receptor activation and downstream calcium signaling. […] This observation confirmed PAR2-dependent calcium mobilization and that rKLK5 could initiate PAR2 activation. The inhibition potential of lead 7 on KLK5 activity was then assessed by using this assay. rKLK5 was preincubated with lead 7 at concentrations of 2.5, 5, 20, or 40 μM for one hour before being applied to cultured keratinocytes, after which PAR2-dependent calcium mobilization was measured.
# For Ki calculation, Km values for KLK5 and its substrate Boc-VPR-AMC were previously reported in the literature 8, 9, allowing the conversion from IC50 to Ki using the Cheng Prusoff equation10 Kᵢ = IC₅₀ / (1 + [S]/Kₘ) for single-site competitive binding.
# Cell lines and tissue cultures
# Keratinocytes isolated from the skin in a patient with genetic skin disease Netherton Syndrome (NS19) and in healthy donors (C42, C46, P8) were used in the study. […]
# The immortalized keratinocyte cell line (N/TERT)13, 14 were used for the assay. […] The cells were counted, and 100 µL of the suspension, at a density of 600,000 cells/mL, was seeded into each well of a 96 -well microplate. […]
# calcium signalling. […] Fluorescence excitation was set at 485 nm, and emission was recorded at 520 nm using SpectraMax® i3x plate reader. […]
compound,measurement,value
C[C@@H](O)[C@@H]1NC(=O)[C@@H]2CSSC[C@H](NC(=O)[C@H](CCC(=O)O)NC(=O)[C@@H]3CCCN3C(=O)[C@@H]3CCCN3C(=O)[C@H](CC(N)=O)NC(=O)[C@H](CO)NC(=O)[C@H](CCCNC(=N)N)NC1=O)C(=O)N[C@@H](Cc1c[nH]c3ccccc13)C(=O)N1CCC[C@H]1C(=O)N[C@@H](CC(N)=O)C(=O)NCC(=O)N[C@@H](Cc1ccccc1)C(=O)N2 [compound 7] (cyclo(GFCTRSNPPECWPN); disulfide 3-11),PAR2-dependent calcium mobilization after rKLK5 preincubated with inhibitor,dose-dependent reduction; also recorded: progressive reduction in calcium release
